Measurements taken from patent publication US12390440B2, “Immunomodulating trifluoromethyl-aminal azalides” (Zoetis Services LLC, priority 2020, dated 2025).
pIC50: −log10 of the molar value. Read-outs that look alike come from different tables or passages of the source.

Columns and labels:
IL-1β = experiment: Bovine whole blood assay, IL-1β; type: cell-based; conditions: overstimulation of IL-1β, perceived cellular toxicity concentration;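 note: compound concentration at which rising IL-1β release signals cytotoxicity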
Experimental: (§1) (protected from light) for 30 minutes.

TNF-α = experiment: Bovine whole blood assay, LPS-induced TNF-α; type: cell-based; conditions: Bos taurus, fresh whole bovine blood, LPS 1 μg/mL
Experimental: as §1

[1] = system: BRD pathogens, M. haemolytica and P. multocida; experiment: MIC screening panel, BRD pathogens (CLSI broth micro-dilution)

## CCNC[C@]1(O)[C@H](C)O[C@@H](O[C@H]2[C@H](C)[C@@H](O[C@@H]3O[C@H](C)C[C@H]4[C@H]3OC(C(F)(F)F)N4C)[C@](C)(O)C[C@@H](C)CN[C@H](C)[C@@H](O)[C@](C)(O)[C@@H](CC)OC(=O)[C@@H]2C)C[C@@]1(C)OC (stereo partly drawn) [Example A-5, (2R,3S,4R,5R,8R,10R,11R,12S,13S,14R)-11-(((3aR,4S,6R,7aS)-1,6-dimethyl-2-(trifluoromethyl)hexahydro-2H-pyrano[4,3-d]oxazol-4-yl)oxy)-2-ethyl-13-(((2R,4R,5S,6S)-5-((ethylamino)methyl)-5-hydroxy-4-methoxy-4,6-dimethyltetrahydro-2H-pyran-2-yl)oxy)-3,4,10-trihydroxy-3,5,8,10,12,14-hexamethyl-1-oxa-6-azacyclopentadecan-15-one]
IL-1β
  IL-1β OS of LPS: 5 µM
TNF-α
  pIC50: 5.30

## CC[C@H]1OC(=O)[C@H](C)[C@@H](O[C@H]2C[C@@](C)(OC)[C@](O)(CNCc3ncc[nH]3)[C@H](C)O2)[C@H](C)[C@@H](O[C@@H]2O[C@H](C)C[C@H]3[C@H]2OC(C(F)(F)F)N3C)[C@](C)(O)C[C@@H](C)CN[C@H](C)[C@@H](O)[C@]1(C)O (stereo partly drawn) [Example A-11, (2R,3S,4R,5R,8R,10R,11R,12S,13S,14R)-13-(((2R,4R,5S,6S)-5-((((1H-imidazol-2-yl)methyl)amino)methyl)-5-hydroxy-4-methoxy-4,6-dimethyltetrahydro-2H-pyran-2-yl)oxy)-11-(((3aR,4S,6R,7aS)-1,6-dimethyl-2-(trifluoromethyl)hexahydro-2H-pyrano[4,3-d]oxazol-4-yl)oxy)-2-ethyl-3,4,10-trihydroxy-3,5,8,10,12,14-hexamethyl-1-oxa-6-azacyclopentadecan-15-one]
[1]; read-out: MIC flag (*) at Ex #
  MIC: < 64 µg/mL
IL-1β
  IL-1β OS of LPS: 40 µM
TNF-α
  pIC50: 4.00

## CC[C@H]1OC(=O)[C@H](C)[C@@H](O[C@H]2C[C@@](C)(OC)[C@](O)(CNCCS(=O)(=O)N(C)C)[C@H](C)O2)[C@H](C)[C@@H](O[C@@H]2O[C@H](C)C[C@H]3[C@H]2OC(C(F)(F)F)N3C)[C@](C)(O)C[C@@H](C)CN[C@H](C)[C@@H](O)[C@]1(C)O (stereo partly drawn) [Example A-13, 2-((((2S,3S,4R,6R)-6-(((2R,3S,4R,5R,8R,10R,11R,12S,13S,14R)-11-(((3aR,4S,6R,7aS)-1,6-dimethyl-2-(trifluoromethyl)hexahydro-2H-pyrano[4,3-d]oxazol-4-yl)oxy)-2-ethyl-3,4,10-trihydroxy-3,5,8,10,12,14-hexamethyl-15-oxo-1-oxa-6-azacyclopentadecan-13-yl)oxy)-3-hydroxy-4-methoxy-2,4-dimethyltetrahydro-2H-pyran-3-yl)methyl)amino)-N,N-dimethylethane-1-sulfonamide]
IL-1β
  IL-1β OS of LPS: 40 µM
TNF-α
  pIC50: 4.74

## CC[C@H]1OC(=O)[C@H](C)[C@@H](O[C@H]2C[C@@](C)(OC)[C@](O)(CNCCn3cncn3)[C@H](C)O2)[C@H](C)[C@@H](O[C@@H]2O[C@H](C)C[C@H]3[C@H]2OC(C(F)(F)F)N3C)[C@](C)(O)C[C@@H](C)CN[C@H](C)[C@@H](O)[C@]1(C)O (stereo partly drawn) [Example A-14, (2R,3S,4R,5R,8R,10R,11R,12S,13S,14R)-13-(((2R,4R,5S,6S)-5-(((2-(1H-1,2,4-triazol-1-yl)ethyl)amino)methyl)-5-hydroxy-4-methoxy-4,6-dimethyltetrahydro-2H-pyran-2-yl)oxy)-11-(((3aR,4S,6R,7aS)-1,6-dimethyl-2-(trifluoromethyl)hexahydro-2H-pyrano[4,3-d]oxazol-4-yl)oxy)-2-ethyl-3,4,10-trihydroxy-3,5,8,10,12,14-hexamethyl-1-oxa-6-azacyclopentadecan-15-one]
[1]; read-out: MIC flag (*) at Ex #
  MIC: < 64 µg/mL
IL-1β
  IL-1β OS of LPS: 40 µM
TNF-α
  pIC50: 4.52

## CC[C@H]1OC(=O)[C@H](C)[C@@H](O[C@H]2C[C@@](C)(OC)[C@](O)(CNCCOCCO)[C@H](C)O2)[C@H](C)[C@@H](O[C@@H]2O[C@H](C)C[C@H]3[C@H]2OC(C(F)(F)F)N3C)[C@](C)(O)C[C@@H](C)CN[C@H](C)[C@@H](O)[C@]1(C)O (stereo partly drawn) [Example A-16, (2R,3S,4R,5R,8R,10R,11R,12S,13S,14R)-11-(((3aR,4S,6R,7aS)-1,6-dimethyl-2-(trifluoromethyl)hexahydro-2H-pyrano[4,3-d]oxazol-4-yl)oxy)-2-ethyl-3,4,10-trihydroxy-13-(((2R,4R,5S,6S)-5-hydroxy-5-(((2-(2-hydroxyethoxy)ethyl)amino)methyl)-4-methoxy-4,6-dimethyltetrahydro-2H-pyran-2-yl)oxy)-3,5,8,10,12,14-hexamethyl-1-oxa-6-azacyclopentadecan-15-one]
IL-1β
  IL-1β OS of LPS: 40 µM
TNF-α
  pIC50: 4.55

## CC[C@H]1OC(=O)[C@H](C)[C@@H](O[C@H]2C[C@@](C)(OC)[C@](O)(CNCCC(=O)N(C)C)[C@H](C)O2)[C@H](C)[C@@H](O[C@@H]2O[C@H](C)C[C@H]3[C@H]2OC(C(F)(F)F)N3C)[C@](C)(O)C[C@@H](C)CN[C@H](C)[C@@H](O)[C@]1(C)O (stereo partly drawn) [Example A-17, 3-((((2S,3S,4R,6R)-6-(((2R,3S,4R,5R,8R,10R,11R,12S,13S,14R)-11-(((3aR,4S,6R,7aS)-1,6-dimethyl-2-(trifluoromethyl)hexahydro-2H-pyrano[4,3-d]oxazol-4-yl)oxy)-2-ethyl-3,4,10-trihydroxy-3,5,8,10,12,14-hexamethyl-15-oxo-1-oxa-6-azacyclopentadecan-13-yl)oxy)-3-hydroxy-4-methoxy-2,4-dimethyltetrahydro-2H-pyran-3-yl)methyl)amino)-N,N-dimethylpropanamide]
[1]; read-out: MIC flag (*) at Ex #
  MIC: < 64 µg/mL

## CC[C@H]1OC(=O)[C@H](C)[C@@H](O[C@H]2C[C@@](C)(OC)[C@](O)(CNCC3CCN(C(C)=O)CC3)[C@H](C)O2)[C@H](C)[C@@H](O[C@@H]2O[C@H](C)C[C@H]3[C@H]2OC(C(F)(F)F)N3C)[C@](C)(O)C[C@@H](C)CN[C@H](C)[C@@H](O)[C@]1(C)O (stereo partly drawn) [Example A-18, (2R,3S,4R,5R,8R,10R,11R,12S,13S,14R)-13-(((2R,4R,5S,6S)-5-((((1-acetylpiperidin-4-yl)methyl)amino)methyl)-5-hydroxy-4-methoxy-4,6-dimethyltetrahydro-2H-pyran-2-yl)oxy)-11-(((3aR,4S,6R,7aS)-1,6-dimethyl-2-(trifluoromethyl)hexahydro-2H-pyrano[4,3-d]oxazol-4-yl)oxy)-2-ethyl-3,4,10-trihydroxy-3,5,8,10,12,14-hexamethyl-1-oxa-6-azacyclopentadecan-15-one]
[1]; read-out: MIC flag (*) at Ex #
  MIC: < 64 µg/mL

## CC[C@H]1OC(=O)[C@H](C)[C@@H](O[C@H]2C[C@@](C)(OC)[C@](O)(CNCCn3ccccc3=O)[C@H](C)O2)[C@H](C)[C@@H](O[C@@H]2O[C@H](C)C[C@H]3[C@H]2OC(C(F)(F)F)N3C)[C@](C)(O)C[C@@H](C)CN[C@H](C)[C@@H](O)[C@]1(C)O (stereo partly drawn) [Example A-19, (2R,3S,4R,5R,8R,10R,11R,12S,13S,14R)-11-(((3aR,4S,6R,7aS)-1,6-dimethyl-2-(trifluoromethyl)hexahydro-2H-pyrano[4,3-d]oxazol-4-yl)oxy)-2-ethyl-3,4,10-trihydroxy-13-(((2R,4R,5S,6S)-5-hydroxy-4-methoxy-4,6-dimethyl-5-(((2-(2-oxopyridin-1(2H)-yl)ethyl)amino)methyl)tetrahydro-2H-pyran-2-yl)oxy)-3,5,8,10,12,14-hexamethyl-1-oxa-6-azacyclopentadecan-15-one]
[1]; read-out: MIC flag (*) at Ex #
  MIC: < 64 µg/mL

## CC[C@H]1OC(=O)[C@H](C)[C@@H](O[C@H]2C[C@@](C)(OC)[C@](O)(CNCCS(N)(=O)=O)[C@H](C)O2)[C@H](C)[C@@H](O[C@@H]2O[C@H](C)C[C@H]3[C@H]2OC(C(F)(F)F)N3C)[C@](C)(O)C[C@@H](C)CN[C@H](C)[C@@H](O)[C@]1(C)O (stereo partly drawn) [Example A-20, 2-((((2S,3S,4R,6R)-6-(((2R,3S,4R,5R,8R,10R,11R,12S,13S,14R)-11-(((3aR,4S,6R,7aS)-1,6-dimethyl-2-(trifluoromethyl)hexahydro-2H-pyrano[4,3-d]oxazol-4-yl)oxy)-2-ethyl-3,4,10-trihydroxy-3,5,8,10,12,14-hexamethyl-15-oxo-1-oxa-6-azacyclopentadecan-13-yl)oxy)-3-hydroxy-4-methoxy-2,4-dimethyltetrahydro-2H-pyran-3-yl)methyl)amino)ethane-1-sulfonamide]
IL-1β
  IL-1β OS of LPS: 100 µM
TNF-α
  pIC50: 3.85

## CCCNC[C@]1(O)[C@H](C)O[C@@H](O[C@H]2[C@H](C)[C@@H](O[C@@H]3O[C@H](C)C[C@H]4[C@H]3OC(C(F)(F)F)N4C)[C@](C)(O)C[C@@H](C)CN(C)[C@H](C)[C@@H](O)[C@](C)(O)[C@@H](CC)OC(=O)[C@@H]2C)C[C@@]1(C)OC (stereo partly drawn) [Example A-26, (2R,3S,4R,5R,8R,10R,11R,12S,13S,14R)-11-(((3aR,4S,6R,7aS)-1,6-dimethyl-2-(trifluoromethyl)hexahydro-2H-pyrano[4,3-d]oxazol-4-yl)oxy)-2-ethyl-3,4,10-trihydroxy-13-(((2R,4R,5S,6S)-5-hydroxy-4-methoxy-4,6-dimethyl-5-((propylamino)methyl)tetrahydro-2H-pyran-2-yl)oxy)-3,5,6,8,10,12,14-heptamethyl-1-oxa-6-azacyclopentadecan-15-one]
[1]; read-out: MIC flag (*) at Ex #
  MIC: < 64 µg/mL

## CC[C@H]1OC(=O)[C@H](C)[C@@H](O[C@H]2C[C@@](C)(OC)[C@@H](O)[C@H](C)O2)[C@H](C)[C@@H](O[C@@H]2O[C@H](C)C[C@H]3[C@H]2OC(C(F)(F)F)N3C)[C@](C)(O)C[C@@H](C)CN(C)[C@H](C)[C@@H](O)[C@]1(C)O (stereo partly drawn) [Example C-1, (2R,3S,4R,5R,8R,10R,11R,12S,13S,14R)-11-(((3aR,4S,6R,7aS)-1,6-dimethyl-2-(trifluoromethyl)hexahydro-2H-pyrano[4,3-d]oxazol-4-yl)oxy)-2-ethyl-3,4,10-trihydroxy-13-(((2R,4R,5S,6S)-5-hydroxy-4-methoxy-4,6-dimethyltetrahydro-2H-pyran-2-yl)oxy)-3,5,6,8,10,12,14-heptamethyl-1-oxa-6-azacyclopentadecan-15-one]
[1]; read-out: MIC flag (*) at Example #
  MIC: < 64 µg/mL
